Tested on: VA-ES-BJ tumor spheroid viability
Assay: Anticancer human tumor VA-ES-BJ cell line growth inhibition;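 also: spheroids exposed to compounds for seven days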;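 as to viability, T/C: percent of DMSO vehicle control viability so 100% = untreated growth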
Conditions: spheroids with HUVEC and MSC; for IC50: curve of first compound; for viability, T/C: stronger effect = lower value
Excerpt: Multicellular complex tumor spheroid response to DNA repair inhibitors in combination with DNA-damaging drugs
This study explores the anticancer activities of DNA-damaging drugs and inhibitors of DNA damage repair, both as single agents and in combinations. Complex tumor spheroids comprised of malignant cells, endothelial cells and mesenchymal stem cells served as an in vitro model for human solid tumors. This model system incorporates physiologically relevant features and patient-derived or established malignant cell lines with clinically relevant genetic alterations from many tumor types. Twenty-six patient-derived or established malignant cell lines were evaluated representing sarcoma, melanoma, small cell lung cancer (SCLC), non-small cell lung cancer (NSCLC), as well as bladder, ovarian and pancreatic cancers. The concentration ranges selected for each drug and investigational agent were based upon clinically achievable concentrations if the clinical Cmax of the agent was known.
Compounds. The drugs and compounds olaparib (NSC753686), talazoparib (NSC767125), berzosertib (NSC777718), elimusertib (NSC800525), nedisertib (NSC802822), VX-984 (NSC792969), AZD-1390 (NSC803789), temozolomide (NSC362856), topotecan (NSC609699), trabectedin (NSC813783), staurosporine (NSC755774), and gemcitabine (NSC613327) were obtained from the National Cancer Institute (NCI) Developmental Therapeutics Program Chemical Repository. The FDA-approved anticancer drug set is available from the Developmental Therapeutics Program at https://dtp.cancer.gov/organization/dscb/obtaining/available_plates.htm. […] The stock solutions were prepared in dimethyl sulfoxide (DMSO, Sigma-Aldrich, St. Louis, MO, cat. D2650) at 400-fold the tested concentration and stored at -70 degrees C. Prior to their use, the stock solutions were diluted in fresh medium and the final DMSO concentration in the assay was 0.25% (v/v). All drugs and investigational agents were tested over a range starting from a high concentration at or near the clinical Cmax and decreasing in half-log increments. If the clinical Cmax for an agent had not been determined, the highest concentration tested was 10 microM.
Cell Lines. The patient-derived cancer cell (PDC) lines: 156681-154-R-J1-PDC, 283228-195-R-J1-PDC, 287954-098-R-J1-PDC, 292921-168-R-J2-PDC, 349418-098-R-PDC, 425362-245-T-J1-PDC, 556581-035-R-J1-PDC, and BL0293-F563-PDC were received from the NCI Patient-Derived Models Repository (PDMR, https://pdmr.cancer.gov). The established cell lines HS-SY-2 (RRID:CVCL_8719), MPNST, and SYO-1 (RRID:CVCL_7146) were obtained from the Sloan Kettering Institute. The alveolar soft parts sarcoma cell line ASPS-1 (RRID:CVCL_S738) was established at the NCI and grown from internal seed stocks. The following established cell lines were purchased from the American Type Culture Collection (ATCC, Manassas, VA): G-401 (ATCC, cat. CRL-1441, RRID:CVCL_0270), SW982 (ATCC, cat. HTB-93, RRID:CVCL_1734), VA-ES-BJ (ATCC, cat. CRL-2138, RRID:CVCL_1785), NCI-H719 (ATCC, cat. CRL-5837, RRID:CVCL_1582), NCI-H196 (ATCC, cat. CRL-5823, RRID:CVCL_1509), NCI-H841 (ATCC, cat. CRL-5845, RRID:CVCL_1595), NCI-H1618 (ATCC, cat. CRL-5879, RRID:CVCL_1480), NCI-H1876 (ATCC, cat. CRL-5902, RRID:CVCL_1503), DMS 114 (ATCC, cat. CRL-2066; RRID:CVCL_1174), NCI-H211 (ATCC, cat. CRL-5824; RRID:CVCL_1529), and SW 1271 (ATCC, cat. CRL-2177, RRID:CVCL_1716). The small cell lung cancer cell line COR-L88 was purchased from Sigma-Aldrich (cat. 92031917-1VL, RRID:CVCL_1141). The non-small cell lung cancer cell lines NCI-H226 (RRID:CVCL_1544) and NCI-H322M (RRID:CVCL_1557) were established at the NCI and grown from internal seed stocks. Pooled donor human umbilical vein endothelial cells (HUVEC, Lonza, cat. CC-2519) and human mesenchymal stem cells (hMSC, Lonza, cat. PT-2501) were purchased from Lonza (Walkersville, MD).
Cell Culture. All cells were maintained in an incubator at 37 degrees C and 5% CO2 with 95% humidity. […]

In the case of `Cc1sc2c(c1C)C(c1ccc(Cl)cc1)=NC(CC(=O)Nc1ccc(O)cc1)c1nnc(C)n1-2` (stereo not given) + CC[C@@]1(O)C(=O)OCc2c1cc1n(c2=O)Cc2cc3c(CN(C)C)c(O)ccc3nc2-1, the IC50 (second compound 0.003 µM) is reported as 101 nM, the IC50 (second compound 0.00949 µM) is reported as 45.4 nM and the IC50 (second compound 0.03 µM) is reported as < 9.49 nM. The IC50 (second compound 0.0949 µM) was < 9.49 nM, the IC50 (second compound 0.3 µM) was < 9.49 nM and the viability, T/C (second compound 0.003 µM, first compound 0.00949 µM) was 78.5%. For the same molecule, the viability, T/C (second compound 0.003 µM, first compound 0.03 µM) was 75.2%, the viability, T/C (second compound 0.003 µM, first compound 0.0949 µM) was 47% and the viability, T/C (second compound 0.003 µM, first compound 0.3 µM) was 34.7%. The viability, T/C (second compound 0.003 µM, first compound 0.949 µM) was 23.3%, the viability, T/C (second compound 0.003 µM, first compound 3 µM) was 19% and the viability, T/C (second compound 0.00949 µM, first compound 0.00949 µM) was 66.1%. For the same molecule, the viability, T/C (second compound 0.00949 µM, first compound 0.03 µM) was 55.6%, the viability, T/C (second compound 0.00949 µM, first compound 0.0949 µM) was 40.1% and the viability, T/C (second compound 0.00949 µM, first compound 0.3 µM) was 28.6%. It also gave a viability, T/C (second compound 0.00949 µM, first compound 0.949 µM) of 18.4%, a viability, T/C (second compound 0.00949 µM, first compound 3 µM) of 13.5% and a viability, T/C (second compound 0.03 µM, first compound 0.00949 µM) of 30.7%. The viability, T/C (second compound 0.03 µM, first compound 0.03 µM) was 33.7%, the viability, T/C (second compound 0.03 µM, first compound 0.0949 µM) was 23.1% and the viability, T/C (second compound 0.03 µM, first compound 0.3 µM) was 13.3%. It also gave a viability, T/C (second compound 0.03 µM, first compound 0.949 µM) of 5.6%, a viability, T/C (second compound 0.03 µM, first compound 3 µM) of 5.34% and a viability, T/C (second compound 0.0949 µM, first compound 0.00949 µM) of 5.99%. It also gave a viability, T/C (second compound 0.0949 µM, first compound 0.03 µM) of 5.36%, a viability, T/C (second compound 0.0949 µM, first compound 0.0949 µM) of 5.41% and a viability, T/C (second compound 0.0949 µM, first compound 0.3 µM) of 4.64%. For the same molecule, the viability, T/C (second compound 0.0949 µM, first compound 0.949 µM) was 4.96%, the viability, T/C (second compound 0.0949 µM, first compound 3 µM) was 3.57% and the viability, T/C (second compound 0.3 µM, first compound 0.00949 µM) was 5.26%. It also gave a viability, T/C (second compound 0.3 µM, first compound 0.03 µM) of 5.21%, a viability, T/C (second compound 0.3 µM, first compound 0.0949 µM) of 4.85% and a viability, T/C (second compound 0.3 µM, first compound 0.3 µM) of 4.65%. The viability, T/C (second compound 0.3 µM, first compound 0.949 µM) was 4.55% and the viability, T/C (second compound 0.3 µM, first compound 3 µM) was 3.36%.

From PubChem BioAssay AID1845217 (Molecular Pharmacology Branch, DTP, NCI, 2023)
